According to PMC3752001 (European journal of pharmacology, 2012):
“And” between values parts separate entries of the source, which are not always exact repeats. Equal entries are not always repeated. Structures can show the parent of a compound that is named as a salt. Where two headings read alike, the source gives them in different places.

How the values were obtained:
[1] = target: high sensitivity (HS) α4β2 nicotinic acetylcholine receptors (Homo sapiens, UniProt P17787+P43681); test: Two-electrode voltage clamp, high sensitivity; type: cell-based
[2] = target: low sensitivity (LS) α4β2 nicotinic acetylcholine receptors (Homo sapiens, UniProt P17787+P43681); test: Two-electrode voltage clamp, low sensitivity; type: cell-based; settings: for Imax (%) potentiation: dFBr co-applied with 100 μM acetylcholine (EC75)
[3] = target: HS β2D218A α4β2 receptors (Homo sapiens, UniProt P17787+P43681, D218A); test: Two-electrode voltage clamp, HS β2D218A mutant preparation in Xenopus oocytes; type: cell-based; settings: for nH ± S.E.M.: ACh concentration/response, HSβ2D218A
[4] = target: LS β2D218A α4β2 receptors (Homo sapiens, UniProt P17787+P43681, D218A); test: Two-electrode voltage clamp, LS β2D218A mutant preparation in Xenopus oocytes; type: cell-based; settings: for nH ± S.E.M.: ACh concentration/response, LSβ2D218A
[5] = target: α7 nicotinic acetylcholine receptors (Homo sapiens, UniProt P36544); test: Two-electrode voltage clamp, α7 receptors in Xenopus oocytes; type: cell-based
[6] = tested on: human and rat 5-hydroxytryptamine transporters (SERT); settings: HEPES concentrations greater than 1 mM; ref Li et al., 2002; cited from earlier work

Chain of low sensitivity (LS) α4β2 nicotinic acetylcholine receptors (P43681 27-627): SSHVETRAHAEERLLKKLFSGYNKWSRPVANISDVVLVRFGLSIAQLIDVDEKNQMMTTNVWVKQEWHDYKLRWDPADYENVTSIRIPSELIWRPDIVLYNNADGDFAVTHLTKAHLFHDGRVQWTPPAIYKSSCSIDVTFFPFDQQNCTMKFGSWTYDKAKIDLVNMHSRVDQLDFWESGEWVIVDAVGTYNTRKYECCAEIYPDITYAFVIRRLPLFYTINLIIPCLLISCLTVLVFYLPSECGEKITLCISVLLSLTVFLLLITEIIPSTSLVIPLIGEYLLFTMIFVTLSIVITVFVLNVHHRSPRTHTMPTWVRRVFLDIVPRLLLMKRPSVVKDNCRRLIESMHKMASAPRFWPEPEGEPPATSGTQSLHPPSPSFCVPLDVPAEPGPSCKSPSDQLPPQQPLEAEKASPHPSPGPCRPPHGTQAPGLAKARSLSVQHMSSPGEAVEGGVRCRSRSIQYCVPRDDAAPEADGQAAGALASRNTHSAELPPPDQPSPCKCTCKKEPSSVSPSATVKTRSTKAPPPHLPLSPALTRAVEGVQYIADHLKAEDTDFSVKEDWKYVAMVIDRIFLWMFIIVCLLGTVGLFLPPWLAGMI
Chain of low sensitivity (LS) α4β2 nicotinic acetylcholine receptors (P17787 26-502): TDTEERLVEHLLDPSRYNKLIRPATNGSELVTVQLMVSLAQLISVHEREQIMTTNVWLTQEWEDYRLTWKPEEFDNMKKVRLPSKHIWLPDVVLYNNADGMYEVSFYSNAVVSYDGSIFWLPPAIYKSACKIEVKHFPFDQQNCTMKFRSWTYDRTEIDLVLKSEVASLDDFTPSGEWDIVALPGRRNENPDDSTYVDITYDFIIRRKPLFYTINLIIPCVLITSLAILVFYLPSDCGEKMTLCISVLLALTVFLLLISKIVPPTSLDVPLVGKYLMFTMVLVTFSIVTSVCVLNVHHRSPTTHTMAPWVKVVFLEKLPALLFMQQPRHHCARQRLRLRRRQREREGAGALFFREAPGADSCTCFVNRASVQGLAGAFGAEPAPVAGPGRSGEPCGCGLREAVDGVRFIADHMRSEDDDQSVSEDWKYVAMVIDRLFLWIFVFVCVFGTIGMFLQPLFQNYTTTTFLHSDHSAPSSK
Chain of LS β2D218A α4β2 receptors (P43681 27-627): as the sequence (P43681 27-627) above
Chain of LS β2D218A α4β2 receptors (P17787 26-502 D218A): as the sequence (P17787 26-502) above, with D193A counted along it
Chain of high sensitivity (HS) α4β2 nicotinic acetylcholine receptors (P43681 27-627): as the sequence (P43681 27-627) above
Chain of high sensitivity (HS) α4β2 nicotinic acetylcholine receptors (P17787 26-502): as the sequence (P17787 26-502) above
Chain of HS β2D218A α4β2 receptors (P43681 27-627): as the sequence (P43681 27-627) above
Chain of HS β2D218A α4β2 receptors (P17787 26-502 D218A): as the sequence (P17787 26-502) above, with D193A counted along it
Chain of α7 nicotinic acetylcholine receptors (P36544 23-502): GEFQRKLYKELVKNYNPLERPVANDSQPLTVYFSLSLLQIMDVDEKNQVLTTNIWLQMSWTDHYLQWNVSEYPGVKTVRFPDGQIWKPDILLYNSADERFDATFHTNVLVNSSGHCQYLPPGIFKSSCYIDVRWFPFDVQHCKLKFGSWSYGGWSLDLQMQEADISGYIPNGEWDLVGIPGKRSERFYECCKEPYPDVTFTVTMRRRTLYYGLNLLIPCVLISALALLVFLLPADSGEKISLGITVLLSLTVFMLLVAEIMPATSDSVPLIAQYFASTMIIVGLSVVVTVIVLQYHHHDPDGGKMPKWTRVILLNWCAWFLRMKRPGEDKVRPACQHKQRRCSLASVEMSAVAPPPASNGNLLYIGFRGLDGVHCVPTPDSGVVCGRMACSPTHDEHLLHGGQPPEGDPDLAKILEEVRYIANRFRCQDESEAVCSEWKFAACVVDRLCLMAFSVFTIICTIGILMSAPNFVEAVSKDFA

CC(=O)OCC[N+](C)(C)C [ACh, acetylcholine chloride]
change of acetylcholine pEC50 [1]: not significantly changed
nH ± S.E.M. [1]: 0.9 ± 0.2 and 1.0 ± 0.2
nH ± S.E.M. [2]: 1.2 ± 0.1 and 1.2 ± 0.2
nH ± S.E.M. ([3]; HEPES ND-96 buffer): 1.1 ± 0.3
nH ± S.E.M. ([3]; phosphate ND-96 buffer): 0.9 ± 0.3
nH ± S.E.M. ([4]; HEPES ND-96 buffer): 1.0 ± 0.1
nH ± S.E.M. ([4]; phosphate ND-96 buffer): 0.8 ± 0.2
Hill slope ([5]; acetylcholine, α7, phosphate ND-96 buffer): 0.79 ± 0.13

O=S(=O)(O)CCN1CCN(CCO)CC1 [HEPES, 4-(2-hydroxyethyl)-1-piperazineethanesulfonic acid]
IC50 [1]: 430 µM
potentiation of the acetylcholine-induced Imax currents ([1]; 100 μM HEPES, HS, phosphate ND-96): 194%
current induced by HEPES alone ([1]; HEPES applied alone to α4β2 expressing oocytes (data not shown)): no induced current
maximum potentiation of acetylcholine induced responses ([1]; HEPES co-applied with 10 μM acetylcholine, HS, 2 mM phosphate ND-96, pH 7.4): 190%
effect of HEPES on acetylcholine response ([2]; HEPES co-applied with 100 μM acetylcholine, LS, phosphate ND-96): only a slight inhibition of the response with no observable potentiation
potentiation by HEPES ([3]; HEPES co-applied with 10 μM acetylcholine, HS β2D218A, phosphate ND-96): not potentiated
potentiation by HEPES ([4]; HEPES co-applied with 100 μM acetylcholine, LS β2D218A, phosphate ND-96): remained insensitive
effect of HEPES on responses to acetylcholine ([5]; HEPES ≤ 10 mM co-applied with 1 mM acetylcholine, α7): little observable effect
decrease of SERT currents [6]: 10–50%

C=CC(C)(C)c1[nH]c2cc(Br)ccc2c1CCNC [dFBr, Desformylflustrabromine · HCl]
EC50 [1]: 3.2 µM
IC50 [1]: 79 µM
Imax (%) potentiation [1]: 370% and 360%
potentiation by dFBr [1]: ~360%
EC50 ([1]; EC50 (potentiation)): 2.5 µM
IC50 ([1]; IC50 (inhibition phase)): 50 µM
EC50 [2]: 1.3 µM
IC50 [2]: 6.3 µM
Imax (%) potentiation ([2]; LS, HEPES ND-96 buffer): 260%
Imax (%) potentiation ([2]; LS, phosphate ND-96 buffer): 370%

Tris (hydroxymethyl)-aminomethane hydrochloride
inhibition of acetylcholine response ([1]; 10 mM Tris co-applied with 10 μM acetylcholine, HS, phosphate ND-96): 50%
inhibition of the dFBr potentiated acetylcholine induced response ([1]; 10 mM Tris, with 1 μM dFBr and acetylcholine, HS, phosphate ND-96): about 50%
current induced by Tris alone ([1]; Tris in phosphate buffer in the absence of acetylcholine): did not induce currents
effect of Tris on acetylcholine response ([2]; Tris ≤ 10 mM co-applied with 100 μM acetylcholine, LS, phosphate ND-96): only slightly inhibited
effect of Tris on the dFBr potentiated response ([2]; Tris ≤ 10 mM, with 1 μM dFBr and acetylcholine, LS, phosphate ND-96): only slightly inhibited
